In patent US20220169632A1, “METHODS AND MATERIALS FOR INCREASING OR MAINTAINING NICOTINAMIDE MONONUCLEOTIDE ADENYLYL TRANSFERASE-2 (NMNAT2) POLYPEPTIDE LEVELS” (University of Pittsburgh - Of the Commonwealth System of …, priority 2019, published 2022):

Each compound was assayed on NMNAT2 (assay: NMNAT2-Hibit nano-luciferase activity in stably transfected U87MG cells, various concentrations, 24 hours). Conditions: U87MG cells stably transfected with NMNAT2-Hibit luc plasmid.
Type: cell-based
Method: Selected compounds were tested in vitro. U87MG cells were stably transfected with NMNAT2-Hibit luc plasmid. Cells were treated with a test compound at various concentrations for 24 hours. Cells were then collected and assayed for nano-luciferase activity.

Row | Structure (SMILES) | E: compound efficacy for NMNAT2 activation (concentration giving >25% increase in NMNAT2 luciferase activity)
1 | Cc1ccccc1CNC(=O)C1CCc2c(c3ccccc3n2CC(=O)NCc2ccco2)C1 (centres unmarked) [BC20238] | ++ (“++” >25% increase in NMNAT2 luciferase activity at >1 μM ≤25 μM.)
2 | Cc1ccc(C)c(Cn2c3c(c4ccccc42)CN(C(=O)NCC2CCCO2)CC3)c1 (centres unmarked) [BC20252] | + (“+” >25% increase in NMNAT2 luciferase activity at >25 μM.)
3 | O=C(Cn1c2c(c3ccccc31)CC(C(=O)NCc1cccnc1)CC2)NCc1ccco1 (centres unmarked) [BC20242] | + (“+” >25% increase in NMNAT2 luciferase activity at >25 μM.)
4 | Cc1ccc(C)c(Cn2c(C)c([C@H]3C[C@@H]3C(=O)NCCc3ccccc3)c3ccccc32)c1 (racemic) [BC20326] | ++ (“++” >25% increase in NMNAT2 luciferase activity at >1 μM ≤25 μM.)
5 | Cc1ccccc1CNC(=O)CCCc1cn(Cc2cccc(F)c2)c2ccccc12 [BC20140] | + (“+” >25% increase in NMNAT2 luciferase activity at >25 μM.)
6 | Cc1c(C)n(Cc2cccc(F)c2)c2ccc(C(=O)NC(C)Cc3ccco3)cc12 (centres unmarked) [BC20118] | ++ (“++” >25% increase in NMNAT2 luciferase activity at >1 μM ≤25 μM.)
7 | COc1ccc(CCN2CCc3cn(Cc4cccc(F)c4)c4cccc(c34)C2=O)cc1 [BC20278] | + (“+” >25% increase in NMNAT2 luciferase activity at >25 μM.)
8 | CCCCN(CC)Cc1ccc(CNC(=O)[C@H]2C[C@@H]2c2cn(Cc3cc(C)ccc3C)c3ccccc23)o1 (racemic) [BC20353] | ++ (“++” >25% increase in NMNAT2 luciferase activity at >1 μM ≤25 μM.)
9 | COc1cccc(CNC(=O)c2ccc3c(c2)c(C)c(C)n3Cc2ccccc2C)c1 [BC20205] | + (“+” >25% increase in NMNAT2 luciferase activity at >25 μM.)
10 | Cc1cccc(CNC(=O)c2ccc3c(c2)c(C)c(C)n3Cc2ccccc2F)c1 [BC20195] | + (“+” >25% increase in NMNAT2 luciferase activity at >25 μM.)
11 | Cc1ccc(Cn2cc(C3CCN(Cc4ccncc4)C(=O)C3)c3ccccc32)cc1 (centres unmarked) [BC20267] | ++ (“++” >25% increase in NMNAT2 luciferase activity at >1 μM ≤25 μM.)
12 | Cc1ccc(CNC(=O)CCCc2cn(Cc3ccccc3C)c3ccccc23)o1 [BC20150] | ++ (“++” >25% increase in NMNAT2 luciferase activity at >1 μM ≤25 μM.)
13 | COc1cccc(CNC(=O)Cn2cc(C(=O)c3ccc(Cl)cc3)c3ccccc32)c1 [BC20181] | ++ (“++” >25% increase in NMNAT2 luciferase activity at >1 μM ≤25 μM.)
14 | O=C1CC(c2cn(Cc3cccc(F)c3)c3ccccc23)CCN1 (centres unmarked) [BC20339] | + (“+” >25% increase in NMNAT2 luciferase activity at >25 μM.)
15 | Cc1cccc(Cn2cc(CCCC(=O)NCc3cccc(F)c3)c3ccccc32)c1 [BC20166] | ++ (“++” >25% increase in NMNAT2 luciferase activity at >1 μM ≤25 μM.)
16 | O=C(Nc1cc(F)ccc1F)N1CCc2c(c3ccccc3n2Cc2cccc(F)c2)C1 [BC20361] | ++ (“++” >25% increase in NMNAT2 luciferase activity at >1 μM ≤25 μM.)
17 | O=C(NCc1cccc(F)c1)N1CCc2c(c3ccccc3n2Cc2ccncc2)C1 [BC20334] | + (“+” >25% increase in NMNAT2 luciferase activity at >25 μM.)
18 | O=C(CCCc1cn(Cc2ccccc2F)c2ccccc12)NCCc1ccccc1 [BC20131] | ++ (“++” >25% increase in NMNAT2 luciferase activity at >1 μM ≤25 μM.)
19 | Cc1ccccc1CNC(=O)Cn1cc2c3c(cccc31)C(=O)N(Cc1cccc(F)c1)CC2 [BC20356] | + (“+” >25% increase in NMNAT2 luciferase activity at >25 μM.)
20 | Cc1ccccc1Cn1c(C)c(C)c2cc(C(=O)NCC3CCCO3)ccc21 (centres unmarked) [BC20201] | + (“+” >25% increase in NMNAT2 luciferase activity at >25 μM.)
21 | COc1cccc(CNC(=O)CCCc2cn(Cc3ccccc3C)c3ccccc23)c1 [BC20156] | ++ (“++” >25% increase in NMNAT2 luciferase activity at >1 μM ≤25 μM.)
22 | Cc1c(C)n(Cc2cccc(F)c2)c2ccc(C(=O)N3CCc4occc4C3)cc12 [BC20250] | ++ (“++” >25% increase in NMNAT2 luciferase activity at >1 μM ≤25 μM.)

Row | Structure (SMILES) | E: compound efficacy for NMNAT2 activation (concentration giving >25% increase in NMNAT2 luciferase activity)
23 | Cc1ccc(CNC(=O)C2CCc3c(c4ccccc4n3Cc3ccncc3)C2)o1 (centres unmarked) [BC20279] | + (“+” >25% increase in NMNAT2 luciferase activity at >25 μM.)
24 | Cc1cccc(CNC(=O)[C@H]2C[C@@H]2c2c(C)n(Cc3cc(C)ccc3C)c3ccccc23)c1 (racemic) [BC20303] | + (“+” >25% increase in NMNAT2 luciferase activity at >25 μM.)
25 | Cc1ccc(C)c(Cn2c(C(F)F)c(CCC(=O)NCc3ccncc3)c3ccccc32)c1 [BC20404] | ++ (“++” >25% increase in NMNAT2 luciferase activity at >1 μM ≤25 μM.)
26 | Cc1ccccc1Cn1c(C)c(C)c2cc(C(=O)NC(C)Cc3ccco3)ccc21 (centres unmarked) [BC20207] | + (“+” >25% increase in NMNAT2 luciferase activity at >25 μM.)
27 | O=C(CCCc1cn(Cc2ccccc2F)c2ccccc12)NCc1cccnc1 [BC20132] | ++ (“++” >25% increase in NMNAT2 luciferase activity at >1 μM ≤25 μM.)
28 | Cc1ccccc1Cn1c(C)c(C)c2cc(C(=O)NCc3ccco3)ccc21 [BC20199] | ++ (“++” >25% increase in NMNAT2 luciferase activity at >1 μM ≤25 μM.)
29 | Cc1ccc(Cn2cc([C@H]3C[C@@H]3C(=O)NCc3ccccc3C)c3ccccc32)cc1 (racemic) [BC20296] | ++ (“++” >25% increase in NMNAT2 luciferase activity at >1 μM ≤25 μM.)
30 | Cc1ccc(C)c(Cn2cc([C@H]3C[C@@H]3C(=O)NCc3ccccc3C)c3ccccc32)c1 (racemic) [BC20347] | ++ (“++” >25% increase in NMNAT2 luciferase activity at >1 μM ≤25 μM.)
31 | Cc1ccc(C)c(Cn2c(C(F)F)c(CCC(=O)N(CCCN3CCOCC3)Cc3ccco3)c3ccccc32)c1 [BC20399] | ++ (“++” >25% increase in NMNAT2 luciferase activity at >1 μM ≤25 μM.)
32 | Cc1ccc(CNC(=O)C2CCc3c(c4ccccc4n3CC(=O)NCc3ccco3)C2)o1 (centres unmarked) [BC20236] | ++ (“++” >25% increase in NMNAT2 luciferase activity at >1 μM ≤25 μM.)
33 | Cc1ccccc1CNC(=O)c1ccc2c(c1)c(C)c(C)n2Cc1ccccc1C [BC20203] | ++ (“++” >25% increase in NMNAT2 luciferase activity at >1 μM ≤25 μM.)
34 | O=C1c2cccc3c2c(cn3Cc2cccc(F)c2)CCN1CCOc1ccccc1 [BC20341] | + (“+” >25% increase in NMNAT2 luciferase activity at >25 μM.)
35 | Cc1cccc(NC(=O)CCCc2cn(Cc3cccc(F)c3)c3ccccc23)c1C [BC20149] | ++ (“++” >25% increase in NMNAT2 luciferase activity at >1 μM ≤25 μM.)
36 | COc1ccccc1CNC(=O)CCCc1cn(Cc2cccc(C)c2)c2ccccc12 [BC20213] | ++ (“++” >25% increase in NMNAT2 luciferase activity at >1 μM ≤25 μM.)
37 | Cc1ccc(Cn2cc([C@H]3C[C@@H]3C(=O)NCc3cccc(F)c3)c3ccccc32)cc1 (racemic) [BC20295] | + (“+” >25% increase in NMNAT2 luciferase activity at >25 μM.)
38 | Cc1ccc(C)c(Cn2cc3c4c(cccc42)C(=O)N(Cc2ccccc2C)CC3)c1 [BC20271] | + (“+” >25% increase in NMNAT2 luciferase activity at >25 μM.)
39 | Cc1cccc(CNC(=O)[C@H]2C[C@@H]2c2cn(Cc3cc(C)ccc3C)c3ccccc23)c1 (racemic) [BC20348] | + (“+” >25% increase in NMNAT2 luciferase activity at >25 μM.)
40 | O=C(CCCc1cn(Cc2cccc(F)c2)c2ccccc12)NCc1cccnc1 [BC20147] | ++ (“++” >25% increase in NMNAT2 luciferase activity at >1 μM ≤25 μM.)
41 | Cc1ccc(Cn2c3c(c4ccccc42)C(C(=O)NCc2cccc(C)c2)CCC3)cc1 (centres unmarked) [BC20386] | ++ (“++” >25% increase in NMNAT2 luciferase activity at >1 μM ≤25 μM.)
42 | Cc1c(C)n(Cc2cccc(F)c2)c2ccc(C(=O)N(CCCN3CCOCC3)Cc3ccco3)cc12 [BC20264] | ++ (“++” >25% increase in NMNAT2 luciferase activity at >1 μM ≤25 μM.)
43 | O=C(Cn1c2c(c3ccccc31)CN(C(=O)NCCc1ccccc1)CC2)NCc1ccco1 [BC20329] | + (“+” >25% increase in NMNAT2 luciferase activity at >25 μM.)
44 | O=C(CCCc1cn(Cc2ccccc2F)c2ccccc12)NCc1ccco1 [BC20121] | ++ (“++” >25% increase in NMNAT2 luciferase activity at >1 μM ≤25 μM.)
